Data taken from ChEMBL document CHEMBL1201862, “PubChem BioAssay data set” (2004).
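Compound exposure: 48 hours, 5 concentrations, 96-well plates. Here, GI50 denotes the concentration required for 50% inhibition of growth.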 Active and inactive are the calls of the source. No stated cut-off is given here; in the data, active = GI50 up to about 1.1 µM and inactive = higher.

Columns and labels:
Assay in all cases: NCI tumour cell line growth inhibition, 48 h
786-0 = test system: 786-0
A498 = test system: A498
CAKI-1 = test system: CAKI-1
CCRF-CEM = test system: CCRF-CEM
COLO 205 = test system: COLO 205
DU-145 = test system: DU-145
EKVX = test system: EKVX
HCC 2998 = test system: HCC 2998
HL-60 = test system: HL-60
HT-29 = test system: HT-29
K562 = test system: K562
MCF7 = test system: MCF7
Malme-3M = test system: Malme-3M
OVCAR-4 = test system: OVCAR-4
OVCAR-5 = test system: OVCAR-5
SF-268 = test system: SF-268
SK-MEL-2 = test system: SK-MEL-2
SNB-75 = test system: SNB-75
TK-10 = test system: TK-10
UACC-257 = test system: UACC-257

Row | SMILES | GI50 (786-0) | GI50 (A498) | GI50 (CAKI-1) | GI50 (CCRF-CEM) | GI50 (COLO 205) | GI50 (DU-145) | GI50 (EKVX) | GI50 (HCC 2998) | GI50 (HL-60) | GI50 (HT-29) | GI50 (K562) | GI50 (MCF7) | GI50 (Malme-3M) | GI50 (OVCAR-4) | GI50 (OVCAR-5) | GI50 (SF-268) | GI50 (SK-MEL-2) | GI50 (SNB-75) | GI50 (TK-10) | GI50 (UACC-257)
1 | C[C@@H](c1ccccc1)N(CC#N)[C@H]1CCC[C@]1(O)/C=C/c1ccc2c(c1)OCO2 | > 25 µM (inactive) | 3.48 µM (inactive) | > 25 µM (inactive) | > 25 µM (inactive) | > 25 µM (inactive) | > 25 µM (inactive) | > 25 µM (inactive) | > 25 µM (inactive) | > 25 µM (inactive) | > 25 µM (inactive) | > 25 µM (inactive) | 5.65 µM (inactive) | > 25 µM (inactive) | > 25 µM (inactive) | > 25 µM (inactive) | > 25 µM (inactive) | > 25 µM (inactive) | > 25 µM (inactive) | > 25 µM (inactive) | > 25 µM (inactive)
2 | CC(=O)O[C@H]1C(=O)O[C@@H]2C[C@H]3C(C)=CC(=O)[C@@H](O)[C@]3(C)[C@H]3[C@@]4(O)OC[C@]32[C@@H]1[C@@H](C)[C@H]4O | 0.0238 µM (active) | 0.103 µM (active) | 0.265 µM (active) | 0.0328 µM (active) | 0.188 µM (active) | 0.0321 µM (active) | 0.0453 µM (active) | 0.0505 µM (active) | 0.0229 µM (active) | 0.0518 µM (active) | 0.0266 µM (active) | 0.0294 µM (active) | 0.0232 µM (active) | 0.0577 µM (active) | 0.348 µM (active) | 0.0432 µM (active) | 0.0611 µM (active) | 0.0366 µM (active) | < 0.0234 µM (active) | 0.0395 µM (active)
3 | CC1CCC2(O)C3(C)CC4(O)OC2(C1O)C1(O)C3(O)C(OC(=O)c2ccc[nH]2)C(O)(C(C)C)C41C (stereo not given) | > 100 µM (inactive) | > 100 µM (inactive) | > 100 µM (inactive) | > 100 µM (inactive) | > 100 µM (inactive) | > 100 µM (inactive) | > 100 µM (inactive) | > 100 µM (inactive) | > 65.8 µM (inactive) | > 100 µM (inactive) | > 20.9 µM (inactive) | > 100 µM (inactive) | > 100 µM (inactive) | > 100 µM (inactive) | > 100 µM (inactive) | > 31.6 µM (inactive) | > 100 µM (inactive) | > 100 µM (inactive) | > 100 µM (inactive) | > 100 µM (inactive)
4 | N#Cc1nc(CCC(C(=O)O)N2C(=O)c3ccccc3C2=O)oc1N (stereo not given) | > 100 µM (inactive) | > 100 µM (inactive) | > 100 µM (inactive) | > 100 µM (inactive) | > 100 µM (inactive) | > 100 µM (inactive) | > 100 µM (inactive) | > 100 µM (inactive) | > 100 µM (inactive) | > 100 µM (inactive) | > 100 µM (inactive) | > 100 µM (inactive) | > 100 µM (inactive) | > 100 µM (inactive) | > 100 µM (inactive) | > 100 µM (inactive) | > 100 µM (inactive) | > 100 µM (inactive) | > 100 µM (inactive) | > 100 µM (inactive)
5 | Cc1ccnc2nc(-c3ccc(Cl)cc3)cc(O)c12 | 4.46 µM (inactive) | 3.65 µM (inactive) | 6.68 µM (inactive) | 4.63 µM (inactive) | 2.33 µM (inactive) | 13.5 µM (inactive) | 29.7 µM (inactive) | > 27.4 µM (inactive) | 1.58 µM (inactive) | 3.23 µM (inactive) | 1.89 µM (inactive) | 2.94 µM (inactive) | 6.81 µM (inactive) | > 23.8 µM (inactive) | > 100 µM (inactive) | 28.4 µM (inactive) | 72.4 µM (inactive) | 2.17 µM (inactive) | > 60.5 µM (inactive) | > 100 µM (inactive)
6 | CS(=O)(=O)Nc1ccc2c(c1)N(S(C)(=O)=O)CC2COS(C)(=O)=O (stereo not given) | 31 µM (inactive) | 85.9 µM (inactive) | 24.6 µM (inactive) | 35.8 µM (inactive) | > 100 µM (inactive) | 58.9 µM (inactive) | > 100 µM (inactive) | > 100 µM (inactive) | 25.2 µM (inactive) | > 100 µM (inactive) | 52.4 µM (inactive) | > 10 µM (inactive) | 39.9 µM (inactive) | 76 µM (inactive) | 40.5 µM (inactive) | > 10 µM (inactive) | 19.9 µM (inactive) | 57.7 µM (inactive) | 36.8 µM (inactive) | > 100 µM (inactive)
7 | O=C(C[C@@H]1NCCC[C@H]1O)Cn1cnc2cc(Br)c(Cl)cc2c1=O | 0.0182 µM (active) | 0.0327 µM (active) | 0.0583 µM (active) | 0.0192 µM (active) | 0.0165 µM (active) | 0.025 µM (active) | 0.0244 µM (active) | 0.0458 µM (active) | 0.033 µM (active) | 0.022 µM (active) | 0.0216 µM (active) | < 0.01 µM (active) | 0.0318 µM (active) | 0.0186 µM (active) | < 0.0135 µM (active) | 0.0315 µM (active) | 0.0148 µM (active) | 0.0403 µM (active) | 0.0491 µM (active) | 0.0336 µM (active)
8 | CCOc1ccc2nc3nc(O)nc(C)c3c(NCCCN(CC)CC)c2c1 | > 100 µM (inactive) | > 100 µM (inactive) | > 100 µM (inactive) | > 100 µM (inactive) | > 100 µM (inactive) | > 100 µM (inactive) | > 100 µM (inactive) | > 100 µM (inactive) | > 100 µM (inactive) | > 100 µM (inactive) | > 100 µM (inactive) | > 100 µM (inactive) | > 100 µM (inactive) | > 100 µM (inactive) | > 100 µM (inactive) | > 100 µM (inactive) | > 100 µM (inactive) | > 100 µM (inactive) | > 100 µM (inactive) | > 100 µM (inactive)
9 | COc1ccc(C2=NN(C(=N)S)C(c3ccccc3)C2)cc1 (stereo not given) | 38.3 µM (inactive) | 22.8 µM (inactive) | 40.6 µM (inactive) | 33.2 µM (inactive) | 25.8 µM (inactive) | 53.6 µM (inactive) | 35.9 µM (inactive) | 44.8 µM (inactive) | 18.2 µM (inactive) | 38.9 µM (inactive) | 30.1 µM (inactive) | 22.5 µM (inactive) | 30.5 µM (inactive) | 30.3 µM (inactive) | 58.2 µM (inactive) | 43.6 µM (inactive) | 29.4 µM (inactive) | 29 µM (inactive) | 37.8 µM (inactive) | 29.2 µM (inactive)
10 | Cc1ccc(S(=O)(=O)Oc2coc(CO)cc2=O)cc1 | 6.38 µM (inactive) | 15.5 µM (inactive) | 4.42 µM (inactive) | 3.08 µM (inactive) | 14.3 µM (inactive) | 12.2 µM (inactive) | 15.3 µM (inactive) | 13.7 µM (inactive) | 3.14 µM (inactive) | 12.4 µM (inactive) | 6.04 µM (inactive) | 4.7 µM (inactive) | 16.2 µM (inactive) | 15.1 µM (inactive) | 17.8 µM (inactive) | 9.42 µM (inactive) | 20.3 µM (inactive) | 14.2 µM (inactive) | 17.5 µM (inactive) | 15.3 µM (inactive)
11 | COc1ccc2nc3ccccc3c(NCCCCN(CCCl)CCCl)c2c1 | 0.0436 µM (active) | 0.109 µM (active) | 0.0253 µM (active) | 0.01 µM (active) | 0.368 µM (active) | 0.933 µM (active) | 0.535 µM (active) | 1.04 µM (active) | 0.0186 µM (active) | 0.043 µM (active) | 0.0376 µM (active) | 0.202 µM (active) | 0.112 µM (active) | 0.148 µM (active) | 0.507 µM (active) | 0.0735 µM (active) | 0.703 µM (active) | 0.197 µM (active) | 1.17 µM (inactive) | 1.05 µM (active)
12 | Cc1ccc(NC(=S)N/N=C2\C(=O)Nc3ccccc32)cc1 | > 100 µM (inactive) | 51.6 µM (inactive) | > 100 µM (inactive) | 72.1 µM (inactive) | > 100 µM (inactive) | 4.43 µM (inactive) | 75.9 µM (inactive) | > 100 µM (inactive) | > 100 µM (inactive) | > 100 µM (inactive) | > 100 µM (inactive) | > 100 µM (inactive) | > 100 µM (inactive) | > 100 µM (inactive) | > 100 µM (inactive) | 1.69 µM (inactive) | 97.7 µM (inactive) | > 100 µM (inactive) | > 100 µM (inactive) | > 100 µM (inactive)
13 | O=C1C2=C(c3ccccc31)C(c1ccccc1)N1C(=O)CSC1=N2 (stereo not given) | > 54.6 µM (inactive) | > 100 µM (inactive) | 49.8 µM (inactive) | 48.4 µM (inactive) | > 56.4 µM (inactive) | 52.4 µM (inactive) | > 55.7 µM (inactive) | > 68.1 µM (inactive) | 40.1 µM (inactive) | 43.4 µM (inactive) | 37.2 µM (inactive) | 33.8 µM (inactive) | 71.9 µM (inactive) | 35.3 µM (inactive) | > 85.5 µM (inactive) | 58.1 µM (inactive) | 49 µM (inactive) | 23.3 µM (inactive) | > 75.3 µM (inactive) | > 86.5 µM (inactive)
14 | CC(CCC=O)CCOCc1ccccc1 (stereo not given) | > 100 µM (inactive) | > 100 µM (inactive) | 36.8 µM (inactive) | > 48.5 µM (inactive) | > 100 µM (inactive) | > 100 µM (inactive) | > 100 µM (inactive) | > 100 µM (inactive) | 18.9 µM (inactive) | > 100 µM (inactive) | > 63.5 µM (inactive) | 2.8 µM (inactive) | > 100 µM (inactive) | > 77.8 µM (inactive) | > 89.7 µM (inactive) | > 100 µM (inactive) | > 100 µM (inactive) | > 100 µM (inactive) | > 42 µM (inactive) | 36.5 µM (inactive)
